This passage reports IC50 results from PubChem BioAssay AID1745859.

The test has as its target Equilibrative nucleoside transporter 1 (Homo sapiens) (UniProt Q99808). In words: PubChem AID 1745859. The conditions noted are these: U2OS JumpIn-ENT1 cells, TRACT impedance, adenosine response.

Sequence of Equilibrative nucleoside transporter 1 (Homo sapiens) (Q99808 whole entry, looked up): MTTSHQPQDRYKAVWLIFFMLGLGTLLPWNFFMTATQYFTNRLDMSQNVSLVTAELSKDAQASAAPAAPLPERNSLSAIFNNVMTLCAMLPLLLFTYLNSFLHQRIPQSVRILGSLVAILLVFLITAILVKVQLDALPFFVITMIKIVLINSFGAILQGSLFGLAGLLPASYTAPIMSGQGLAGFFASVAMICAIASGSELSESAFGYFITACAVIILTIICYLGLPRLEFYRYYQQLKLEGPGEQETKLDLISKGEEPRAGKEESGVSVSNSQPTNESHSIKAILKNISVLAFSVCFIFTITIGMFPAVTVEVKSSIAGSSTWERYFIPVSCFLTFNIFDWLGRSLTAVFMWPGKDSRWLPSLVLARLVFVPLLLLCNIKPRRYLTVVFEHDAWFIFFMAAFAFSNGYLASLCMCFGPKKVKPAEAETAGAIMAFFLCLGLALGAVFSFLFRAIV

As a reminder, the IC50 is the concentration at which inhibition is half-maximal. Take `NC(=O)C1CN(CCCCC(c2ccc(F)cc2)c2ccc(F)cc2)CCN1CC(=O)Nc1c(Cl)cc(N)cc1Cl` (stereo unspecified): the IC50 is 5.31 nM.
